The record followed here is US8669254B2, “Pyridine, pyridazine, pyrimidine or pyrazine carboxamides as HDL-cholesterol raising agents” (Hoffman-La Roche Inc., priority 2010, dated 2014).

Read-outs that look alike come from different tables or passages of the source.

For orientation: inhibition means the change of the read-out against control, counted positive when it falls. Broadly, the melting point is the temperature of the solid-liquid transition.

One data set deals with ABCA1 protein. Description: Detection of upregulation of ABCA1 protein in cells (ApoA-I binding, high content image analysis). It counts as cell-based. Particulars: THP-1 macrophage cells, compound at 3 μM, 24 hrs. How it is done:
The ability of compounds of the invention to increase the level of ABCA1 protein is determined in replicate cultures of THP-1 macrophage cells in 96-well microplates. Cells are plated at an initial density of 100,000 cells/well in 100 μl medium and differentiated to adherent macrophages with the addition of PMA (100 nM) for 68 hrs in 10% fetal bovine serum, 3 μl/L of b-mercaptoethanol, RPMI-1640 medium. Then, cells are incubated with RPMI-1640 medium containing 1% FCS, 25 μg/ml acetylated LDL, for 24 hours at 37°. Following incubation with acetylated LDL, cells are washed twice with 50 μl PBS and incubated with 100 μl of RPMI-1640 medium containing the compound of interest solubilized in DMSO for an additional 24 hrs. The final DMSO concentration in presence of cells is maintained at 0.5%. ApoA-I binding assay using High Content Image Analysis is initiated by replacing with fresh medium, RPMI without Phenol Red, 0.2% BSA containing AlexaFluor®647 labeled ApoA-I for 2 h/37° C./5% CO2. Then, cells are fixed with 4% Formaldehyde in PBS (15 min, RT). Following Nuclei are stained with Hoechst solution (3 μM PBS) and Cytoplasm with Cell Mask Blue (2 μg/ml PBS), 15 min, RT. Finally the stained cells are fixed with a second round of formaldehyde treatment. Fixed stained cells are washed and kept in PBS at 4° C. and can be read immediately until one month after preparation.
The Alexa Fluor 647-labeled Apolipoprotein A-I (20 nM) was prepared as follows: Human recombinant Apolipoprotein A-I (ApoA-I) was exchanged to a buffer of 0.02 M NaHCO3 at pH 8.2 on an NAP desalting column (GE Healthcare) and brought to a concentration to 40 μM (1.13 mg/ml) by adjustment with the same buffer. The ApoA-I was fluorescently labeled by incubation with Alexa Fluor carboxylic acid succimidyl ester (Alexa Fluor 647, Invitrogen A-20006) at a 2:1 molar ratio (Alexa to ApoA-I) for 1 h under shaking at RT). The remaining unconjugated label was removed by buffer exchange to 0.02M NaHCO3 at pH 8.2.
Imaging and data collection were performed on an OPERA confocal microplate imaging reader using a 20× water immersion objective and UV360 or 405 laser to identify the cell nuclei and a 635 laser to identify the fluorescent ApoA-I. Eight fields of view are captured per well. Image capture and analysis was performed with the Acapella software. Background fluorescence detected in control wells without ApoA-I was subtracted.
Using XLfit3 program (ID Business Solutions Ltd. UK), the model 205 for Dose Response One Site is used to calculate the EC50 values. […] Particularly, the compounds of the present invention have EC50 values in a range of 0.1 μM to 3 μM.

Another data set addresses T1, human CB1 receptor (Homo sapiens, UniProt P21554).
T1 construct: expressed in transfected cells; host or cells: human embryonic kidney (HEK) cells, Semliki Forest Virus system, membrane preparation
Briefly: CB1 receptor affinity ([3H]-CP-55,940 displacement). In kind it is binding. Particulars: read-out: CB1 receptor affinity [% inhibition @ 10 μM]. How it is done:
(§1) The affinity of the compounds of the invention for cannabinoid receptors was determined using membrane preparations of human embryonic kidney (HEK) cells in which the human CB1 receptor is transiently transfected using a Semliki Forest Virus system in conjunction with [3H]-CP-55,940 as radioligand. After incubation of freshly prepared cell membrane preparation with the [^3H]-ligand, with or without addition of compounds of the invention, separation of bound and free ligand was performed by filtration over glass fiber filters. Radioactivity on the filter was measured by scintillation counting.
(§2) The ability of the compounds to displace the radioligand [^3H]-CP-55,940 was measured at a concentration of 10 μM and values provided as [% inhibition @ 10 μM] both for the CB 1 and CB2 receptor assay, The lower % inhibition is, the lower the likelihood of side effects based on CB1 or CB2 receptor inhibition is.

The next data set has as its target T2, human CB2 receptor (Homo sapiens, UniProt P34972).
T2 construct: expressed in transfected cells; host or cells: human embryonic kidney (HEK) cells, Semliki Forest Virus system, membrane preparation
Briefly: CB2 receptor affinity ([3H]-CP-55,940 displacement). In kind it is binding. Particulars: HEK cell membranes, radioligand [3H]-CP-55,940. How it is done:
as §1, with “cannabinoid CB2” for “cannabinoid”, “CB2” for “CB1”, “[^3H]-CP-55,940” for “[3H]-CP-55,940”
as §2

T2 sequence (P34972 whole entry): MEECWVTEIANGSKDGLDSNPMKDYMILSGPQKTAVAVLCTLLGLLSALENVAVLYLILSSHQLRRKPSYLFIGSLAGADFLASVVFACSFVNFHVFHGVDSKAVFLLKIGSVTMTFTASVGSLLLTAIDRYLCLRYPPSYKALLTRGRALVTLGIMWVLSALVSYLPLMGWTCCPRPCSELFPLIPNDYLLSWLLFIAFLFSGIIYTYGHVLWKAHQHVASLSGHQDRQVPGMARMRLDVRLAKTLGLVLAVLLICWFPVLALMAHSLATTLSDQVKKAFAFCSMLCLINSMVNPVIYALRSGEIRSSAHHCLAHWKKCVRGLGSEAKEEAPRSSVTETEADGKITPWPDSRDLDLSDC
T1 sequence (P21554 whole entry): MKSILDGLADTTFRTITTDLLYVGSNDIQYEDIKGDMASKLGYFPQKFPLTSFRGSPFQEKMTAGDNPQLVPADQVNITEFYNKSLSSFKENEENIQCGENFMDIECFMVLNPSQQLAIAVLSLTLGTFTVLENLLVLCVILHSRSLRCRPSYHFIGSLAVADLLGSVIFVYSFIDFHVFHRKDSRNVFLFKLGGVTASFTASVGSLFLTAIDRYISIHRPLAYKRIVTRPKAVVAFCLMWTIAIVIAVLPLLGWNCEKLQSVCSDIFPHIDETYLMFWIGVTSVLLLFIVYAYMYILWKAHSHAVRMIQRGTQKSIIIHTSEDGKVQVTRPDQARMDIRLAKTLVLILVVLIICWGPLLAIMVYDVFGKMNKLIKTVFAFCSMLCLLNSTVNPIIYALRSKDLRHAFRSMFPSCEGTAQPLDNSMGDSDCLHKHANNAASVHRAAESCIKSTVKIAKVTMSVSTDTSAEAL

Take `CO/N=C(/CNC(=O)c1cnc(O[C@@H](C)C(F)(F)F)c(-c2ccc(Cl)cc2)c1)C1CC1` [Example 31, 5-(4-Chloro-phenyl)-N-{2-cyclopropyl-2-[(E)-methoxyimino]-ethyl}-6-((S)-2,2,2-trifluoro-1-methyl-ethoxy)-nicotinamide]: the melting point is 103 to 106 °C. Besides, the “% increase of ABCA1 at 3 μM” value in the data set on ABCA1 protein turned out to be 74.5% @ 3 μM. On human CB1 receptor, the inhibition at 10 µM is 39.3%. In addition, the inhibition at 10 µM on human CB2 receptor amounted to 3.6%.

As to `CO/N=C1\CCCC[C@@H]1NC(=O)c1cc(-c2ccc(Cl)c(Cl)c2)c(OCC(F)(F)F)nn1` [Example 24, 5-(3,4-Dichloro-phenyl)-6-(2,2,2-trifluoro-ethoxy)-pyridazine-3-carboxylic acid {(S)-2-[(E)-methoxyimino]-cyclohexyl}-amide], the melting point fell in the range of 106 to 109 °C. Further, the “% increase of ABCA1 at 3 μM” value in the data set on ABCA1 protein was found to be 85% @ 3 μM. Also, the inhibition at 10 µM at human CB1 receptor (10 μM, HEK cell membranes, radioligand [3H]-CP-55,940) turned out to be 22%. The molecule further yielded an inhibition at 10 µM at human CB2 receptor of 31%.
